Experimental data as given in paper PMC7434922, “Key role of quinone in the mechanism of respiratory complex I” (Nature Communications, 2020).

T1: Complex I subunit Nqo4 (Thermus thermophilus) (T. thermophilus HB8, UniProt Q56220 1-409)
T1 construct: Nqo4, core subunit of the peripheral arm of respiratory complex I, Thermus thermophilus HB8; Endogenous subunit inside the crystallised intact complex; source: purified from T. thermophilus HB8 cells as part of intact complex I (anion exchange, cation exchange, gel filtration)
T1 sequence (looked up): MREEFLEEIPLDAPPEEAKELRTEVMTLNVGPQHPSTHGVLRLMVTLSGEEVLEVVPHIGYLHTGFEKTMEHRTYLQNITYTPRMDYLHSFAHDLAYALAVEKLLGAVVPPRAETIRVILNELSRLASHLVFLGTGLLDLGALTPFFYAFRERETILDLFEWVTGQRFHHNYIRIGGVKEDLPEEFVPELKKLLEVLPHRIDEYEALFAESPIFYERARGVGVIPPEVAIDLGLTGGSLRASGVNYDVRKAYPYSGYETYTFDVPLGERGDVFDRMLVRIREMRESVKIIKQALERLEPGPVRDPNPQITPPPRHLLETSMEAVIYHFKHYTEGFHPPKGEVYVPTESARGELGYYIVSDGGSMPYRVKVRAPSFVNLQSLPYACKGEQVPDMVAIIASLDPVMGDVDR

B1: Complex I subunit Nqo10 (Thermus thermophilus) (natural protein, T. thermophilus HB8, UniProt Q56225 1-176, looked up)
chain: MSLLEGLALFLLLLSGVLVVTLRNAIHAALALILNFLVLAGVYVALDARFLGFIQVIVYAGAIVVLFLFVIMLLFAAQGEIGFDPLVRSRPLAALLALGVAGILAAGLWGLDLAFTQDLKGGLPQALGPLLYGDWLFVLLAVGFLLMAATVVAVALVEPGKASRAKEAEKREEVAR
notes: Nqo10, core subunit of the membrane domain of respiratory complex I, Thermus thermophilus HB8; Endogenous subunit inside the crystallised intact complex; source: purified from T. thermophilus HB8 cells as part of intact complex I (anion exchange, cation exchange, gel filtration)
B2: Complex I subunit Nqo8 (Thermus thermophilus) (natural protein, T. thermophilus HB8, UniProt Q60019 1-365, looked up)
chain: MTWSYPVDPYWMVALKALLVVVGLLTAFAFMTLIERRLLARFQVRMGPNRVGPFGLLQPLADAIKSIFKEDIVVAQADRFLFVLAPLISVVFALLAFGLIPFGPPGSFFGYQPWVINLDLGILYLFAVSELAVYGIFLSGWASGSKYSLLGSLRSSASLISYELGLGLALLAPVLLVGSLNLNDIVNWQKEHGWLFLYAFPAFLVYLIASMAEAARTPFDLPEAEQELVGGYHTEYSSIKWALFQMAEYIHFITASALIPTLFLGGWTMPVLEVPYLWMFLKIAFFLFFFIWIRATWFRLRYDQLLRFGWGFLFPLALLWFLVTALVVALDLPRTYLLYLSALSFLVLLGAVLYTPKPARKGGGA
notes: Nqo8, core subunit of the membrane domain of respiratory complex I, Thermus thermophilus HB8; Endogenous subunit inside the crystallised intact complex; source: purified from T. thermophilus HB8 cells as part of intact complex I (anion exchange, cation exchange, gel filtration)
B3: Heterologously expressed subunit Nqo16 (ttha1528 gene), His-tagged (natural protein, T. thermophilus HB8, UniProt Q5SI52 1-131, looked up)
chain: MVRVGMRAAPRVSLEALKAALGGLKLSEAKVYLITDWQDKRDQARYALLLHTGKKDLLVPDAFGPAFPGGEEALSELVGLLLAQGARRFYEAVVSPGEMTALLDLPPEELLKRVMAIANPTDPGIYLKRAA
notes: reverse primer with the stop codon) and cloned into pet16b; Full length is read from the printed primers (start codon in the NdeI site to the stop codon); also called His-tagged Nqo16; source: E. coli BL21(DE3), purified (heat treatment 70 °C, Ni-NTA)
B4: Complex I subunit Nqo6 (Thermus thermophilus) (natural protein, T. thermophilus HB8, UniProt Q56218 1-181, looked up)
chain: MALKDLFERDVQELEREGILFTTLEKLVAWGRSNSLWPATFGLACCAIEMMASTDARNDLARFGSEVFRASPRQADVMIVAGRLSKKMAPVMRRVWEQMPDPKWVISMGACASSGGMFNNYAIVQNVDSVVPVDVYVPGCPPRPEALIYAVMQLQKKVRGQAYNERGERLPPVAAWKRTRG
notes: Nqo6, core subunit of the peripheral arm of respiratory complex I, Thermus thermophilus HB8; Endogenous subunit inside the crystallised intact complex; source: purified from T. thermophilus HB8 cells as part of intact complex I (anion exchange, cation exchange, gel filtration)

Assays:
[1] = target: T2, T. thermophilus complex I (quinone site, Q-site) (Thermus thermophilus, UniProt Q56218+Q56220+Q60019); test: biochemical; parameters: NADH:decylubiquinone oxidoreductase activity of purified complex I, NADH absorbance at 340 nm, 50 °C
T2 construct: gene nqo4; native intact complex purified from T. thermophilus HB8 membranes in TDM; 16 subunits, 550 kDa; for crystals recombinant His-tagged Nqo16 (E. coli) was added; activity preparation has sub-stoichiometric Nqo16; with NADH-quinone oxidoreductase subunit 1; NADH-quinone oxidoreductase subunit 2; NADH-quinone oxidoreductase subunit 3; NADH-quinone oxidoreductase subunit 5; NADH-quinone oxidoreductase subunit 7; NADH-quinone oxidoreductase subunit 9; NADH-quinone oxidoreductase subunit 10; NADH-quinone oxidoreductase subunit 11; NADH-quinone oxidoreductase subunit 12; NADH-quinone oxidoreductase subunit 13; NADH-quinone oxidoreductase subunit 14; NADH-quinone oxidoreductase subunit 15; NADH-quinone oxidoreductase subunit 16
Experimental: Complex I activity was measured at 50 °C with DQ as an electron acceptor. To a 2 mL quartz cuvette containing DQ assay buffer (50 mM Bis–Tris pH 6.0, 25 mM NaCl, 2 mM CaCl2), 0.25 mg mL^−1 asolectin (Fluka), 8 μg mL^−1 complex I protein, and 100 μM DQ were added. The sample was incubated for 5 min whilst stirred at 400 rpm, to allow for the equilibration of the protein/DQ/lipid/detergent mixture. The reaction was started by adding 100 μM NADH and the change in absorbance was followed at 340 nm, over 30 s under constant stirring. Specific enzyme activity was calculated in μmol NADH oxidized mg^−[…]. When required, inhibitors of complex I were added after DQ, prior to the 5-min incubation period. Lipids were prepared by mixing asolectin in a small volume of chloroform (1 mL) before evaporating the solvent under a stream of nitrogen gas, and were resuspended in 1% CHAPS to a final concentration of 5 mg mL^−1 before use. […] IC50’s for a range of common complex I inhibitors are listed in the Supplementary Table 3. […] Crystal structures of complex I with bound DQ and Q-like inhibitors also show a rotation of PA, like that observed in MJ–MN transition. However, its degree of torsion depends strongly on the Q-ligand, with DQ introducing the largest conformational change (Supplementary Fig. 7d, e). All Q-like ligands studied here display a similar pattern of interactions at the deepest end of the Q-cavity, with the headgroup about 12 Å away from cluster N2 (Fig. 4). A shared feature between all ligands bound in the Q-site is a hydrogen bond interaction of a ketone group from the quinone ring with the conserved and essential for complex I activity Y87_4[16],[36]. Other key residues, such as H38_4 from the key β1–β2 loop (33-QHPSTHG-39) in Nqo4 and M51_6, also contribute to the stabilization of the quinone ring, while secondary residues are involved specifically in the binding of each ligand (Fig. 4 and Supplementary Fig. 2). […] In the case of [compound left out], H38_4 stabilizes its outer ether group, while M51_6 interacts with the oxygen in the furanose ring (Fig. 4c). The distal nitrobenzene moiety is surrounded by both charged and nonpolar residues that, despite the lack of direct interaction, might form a suitable pocket for its accommodation.

[2] = target: T2, T. thermophilus complex I (quinone site, Q-site); test: NADH:DQ oxidoreductase activity, absorbance at […] nm; assay type: biochemical
[3] = target: B2; test: crystal structure; intact complex I purified from T. thermophilus mixed with purified recombinant Nqo16 (1:0.2 CXI:Nqo16), sitting drop at 23 °C, 100 mM Bis-Tris pH 6.0, 19-25% PEG 4000, 100 mM KCl, 100 mM glutaric acid, detergents; native crystals and crystals soaked or co-crystallised with NADH, decylubiquinone, piericidin A, aureothin or pyridaben; conditions: both partners purified
[4] = target: T1, Complex I subunit Nqo4 (Thermus …); test: as above; conditions: both partners purified
[5] = target: T3, Intact complex I (NADH:ubiquinone oxidoreductase) purified from Thermus thermophilus, the form without Nqo16 (T. thermophilus HB8, UniProt Q56222 1-438; Q56221 1-181; Q56223 1-783; Q56220 1-409; Q56219 1-207; Q56218 …); test: as above; conditions: both partners purified
T3 construct: Nqo1, complex I subunit, Thermus thermophilus HB8; Nqo2, complex I subunit, Thermus thermophilus HB8; Nqo3, complex I subunit, Thermus thermophilus HB8; Nqo4, complex I subunit, Thermus thermophilus HB8; Nqo5, complex I subunit, Thermus thermophilus HB8; Nqo6, complex I subunit, Thermus thermophilus HB8; Nqo7, complex I subunit, Thermus thermophilus HB8; Nqo8, complex I subunit, Thermus …

T2 sequence (Q56222 whole entry partner, one chain of several): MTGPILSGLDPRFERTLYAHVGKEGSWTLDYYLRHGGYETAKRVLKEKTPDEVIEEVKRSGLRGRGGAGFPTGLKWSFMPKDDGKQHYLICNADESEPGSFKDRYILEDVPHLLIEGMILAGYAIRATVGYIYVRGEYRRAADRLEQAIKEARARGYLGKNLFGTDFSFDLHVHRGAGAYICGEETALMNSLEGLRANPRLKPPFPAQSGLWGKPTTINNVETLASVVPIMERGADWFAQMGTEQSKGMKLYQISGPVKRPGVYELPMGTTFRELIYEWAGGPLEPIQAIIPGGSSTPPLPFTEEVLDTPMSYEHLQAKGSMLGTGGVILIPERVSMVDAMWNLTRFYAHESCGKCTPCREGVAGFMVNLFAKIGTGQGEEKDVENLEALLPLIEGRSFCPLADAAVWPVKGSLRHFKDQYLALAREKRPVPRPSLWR

Molecule: Cc1nn(C)c(Oc2ccccc2)c1/C=N/OCc1ccc(C(=O)OC(C)(C)C)cc1 [Fenpyroximate]
- IC50 ([1]; read-out: IC50 (nM in cell)): 630 nM

Molecule: C/C=C(C)/C=C/C=C/[C@H](OC)[C@@H](C)[C@@H](OC)[C@@H](C)CCc1oc2c(O)c(OC)cc(OC)c2c(=O)c1C [Stigmatellin]
- IC50 ([1]; read-out: IC50 (µM in cell)): 60000 nM

Molecule: COc1cc(CNC(=O)CCCC/C=C/C(C)C)ccc1O [Capsaicin]
- IC50 ([1]; read-out: IC50 (µM in cell)): 197000 nM

Molecule: C/C=C(\C)[C@H](O)[C@H](C)/C=C(C)/C=C/C/C(C)=C/Cc1nc(OC)c(OC)c(O)c1C [PIE, piericidin A]
- IC50 [2]: 31 nM

Molecule: C=C(C)[C@H]1Cc2c(ccc3c2O[C@@H]2COc4cc(OC)c(OC)cc4[C@@H]2C3=O)O1 [rotenone]
- IC50 ([2]; read-out: IC50): 190 nM

Molecule: CCCCCCCCCC[C@H](O)[C@H]1CC[C@@H]([C@@H]2CC[C@H]([C@H](O)CCCCCCCCCC[C@@H](O)CC3=C[C@H](C)OC3=O)O2)O1 [Rolliniastatin-1]
- IC50 ([1]; read-out: IC50 (nM in cell)): 930 nM

Molecule: COc1oc([C@H]2C/C(=C/C(C)=C/c3ccc([N+](=O)[O-])cc3)CO2)c(C)c(=O)c1C [AUT, aureothin]
- IC50 ([2]; read-out: IC50): 10.3 nM

Molecule: CC(C)(C)c1ccc(CSc2cnn(C(C)(C)C)c(=O)c2Cl)cc1 [PYR, pyridaben]
- IC50 ([2]; read-out: IC50): 15.6 nM

Molecule: B1
- binding result [3]: binds

Molecule: B2
- binding result [4]: binds

Molecule: B3
- binding result [5]: binds

Molecule: B4
- binding result [3]: binds
